≈ marks a conversion by molar mass, not a printed value. Read-outs that look alike come from different tables or passages of the source.
Legend:
[1] = test system: carbapenemase producing K. pneumoniae; assay: MIC by broth micro-dilution (CLSI), carbapenemase producing K. pneumoniae; format: cell-based, Klebsiella pneumoniae
[2] = test system: carbapenem sensitive Pseudomonas aeruginosa; assay: MIC by broth micro-dilution (CLSI), carbapenem sensitive P. aeruginosa; format: cell-based
[3] = test system: carbapenem sensitive Escherichia coli; assay: MIC by broth micro-dilution (CLSI), carbapenem sensitive E. coli; format: cell-based
[4] = test system: methicillin-sensitive Staphylococcus aureus; assay: MIC by broth micro-dilution (CLSI), methicillin-sensitive S. aureus; format: cell-based; conditions: MSSA S. aureus ATCC29213
[5] = Klebsiella pneumoniae, ATCCBAA1705, KPC-2 K. pneumoniae ATCC BAA-1705, read-out: MIC
[6] = Pseudomonas aeruginosa, ATCC27853, Meropenem susceptible P. aeruginosa ATCC27853, read-out: MIC
[7] = Escherichia coli, ATCC25922, ESBL −ve E. coli ATCC25922, read-out: MIC
[8] = Staphylococcus aureus, ATCC 29213 / MSSA, read-out: MIC

Row | MIC ([1]; KPC-2 K. pneumoniae ATCC BAA-1705) [µg/mL] | MIC ([2]; Meropenem susceptible P. aeruginosa ATCC27853) [µg/mL] | MIC ([3]; ESBL −ve E. coli ATCC25922) [µg/mL] | MIC [4] [µg/mL] | MIC [1, 5] [µg/mL] | MIC [2, 6] [µg/mL] | MIC [3, 7] [µg/mL] | MIC [4, 8] [µg/mL] | SMILES
1 | 2 (≈ 3.55 µM) | 2 (≈ 3.55 µM) | 0.25 (≈ 0.444 µM) | 4 (≈ 7.1 µM) | – | – | – | – | C[C@@H](NC(=O)Cn1cnnn1)[C@H]1C(=O)N2C(C(=O)O)=C(S[C@@H]3CN[C@H](C(=O)N4CC(N)C(CO)C4)C3)[C@H](C)[C@H]12 (single isomer, unassigned) [Example 587]
2 | – | – | – | – | 1 (≈ 1.83 µM) | 1 (≈ 1.83 µM) | 0.25 (≈ 0.458 µM) | 4 (≈ 7.33 µM) | C[C@@H](NC(=O)Cn1cnnn1)[C@H]1C(=O)N2C(C(=O)O)=C(S[C@@H]3CN[C@H](C(=O)N4CC5CNC5C4)C3)[C@H](C)[C@H]12 (single isomer, unassigned) [Example 590]
3 | – | – | – | – | 1 (≈ 1.64 µM) | 2 (≈ 3.29 µM) | 0.25 (≈ 0.411 µM) | 4 (≈ 6.57 µM) | C[C@@H](NC(=O)Cn1cnnn1)C1C(=O)N2C(C(=O)O)=C(S[C@@H]3CN[C@H](C(=O)N4CCN(C[C@@H](F)CN)CC4)C3)[C@H](C)C12 (stereo in doubt) [Example 462, (4R,5S,6R)-6-((R)-1-(2-(1H-tetrazol-1-yl)acetamido)ethyl)-3-((3S,5S)-5-(4-((S)-3-amino-2-fluoropropyl)piperazine-1-carbonyl)pyrrolidin-3-ylthio)-4-methyl-7-oxo-1-azabicyclo[3.2.0]hept-2-ene-2-carboxylic acid]
4 | – | – | – | – | 4 (≈ 7.48 µM) | 32 (≈ 59.8 µM) | 4 (≈ 7.48 µM) | 32 (≈ 59.8 µM) | C[C@@H](NC(=O)CC1CCCN1)[C@H]1C(=O)N2C(C(=O)O)=C(S[C@@H]3CN[C@H](C(=O)N4CCC(N)C4)C3)[C@H](C)[C@H]12 (stereo in doubt) [Example 509, (4R,5S,6R)-3-((3S,5S)-5-((R)-3-aminopyrrolidine-1-carbonyl)pyrrolidin-3-ylthio)-4-methyl-7-oxo-6-((R)-1-(2-((S)-pyrrolidin-2-yl)acetamido)ethyl)-1-azabicyclo[3.2.0]hept-2-ene-2-carboxylic acid]
5 | – | – | – | – | 2 (≈ 3.65 µM) | 4 (≈ 7.3 µM) | 0.25 (≈ 0.457 µM) | 2 (≈ 3.65 µM) | C[C@@H](NC(=O)Cn1cnnn1)[C@H]1C(=O)N2C(C(=O)O)=C(S[C@@H]3CN[C@H](CC(=O)N4CCC(N)C4)C3)[C@H](C)[C@H]12 (stereo in doubt) [Example 536, (4R,5S,6R)-6-((R)-1-(2-(1H-tetrazol-1-yl)acetamido)-ethyl)-3-((3S,5R)-5-(2-((R)-3-aminopyrrolidin-1-yl)-2-oxoethyl)pyrrolidin-3-ylthio)-4-methyl-7-oxo-1-azabicyclo[3.2.0]hept-2-ene-2-carboxylic acid]
6 | – | – | – | – | 16 (≈ 28 µM) | > 128 | 2 (≈ 3.5 µM) | 2 (≈ 3.5 µM) | C[C@@H](NC(=O)C(F)F)[C@H]1C(=O)N2C(C(=O)O)=C(S[C@@H]3CN[C@H](C(=O)N4CCc5nc(N)sc5C4)C3)[C@H](C)[C@H]12 [Example 235]
7 | – | – | – | – | 4 (≈ 7.06 µM) | 128 (≈ 226 µM) | 2 (≈ 3.53 µM) | 2 (≈ 3.53 µM) | C[C@@H](NC(=O)C(F)F)[C@H]1C(=O)N2C(C(=O)O)=C(S[C@@H]3CN[C@H](CNS(=O)(=O)N4CC[C@@H](N)C4)C3)[C@H](C)[C@H]12 [Example 236]
8 | – | – | – | – | 4 (≈ 7.06 µM) | 128 (≈ 226 µM) | 2 (≈ 3.53 µM) | 1 (≈ 1.76 µM) | C[C@@H](NC(=O)C(F)F)[C@H]1C(=O)N2C(C(=O)O)=C(S[C@@H]3CN[C@H](CNS(=O)(=O)N4CC[C@H](N)C4)C3)[C@H](C)[C@H]12 [Example 237]
9 | – | – | – | – | 2 (≈ 4.15 µM) | 32 (≈ 66.4 µM) | 2 (≈ 4.15 µM) | 16 (≈ 33.2 µM) | C[C@@H](NC(=O)CNC(=N)N)[C@H]1C(=O)N2C(C(=O)O)=C(S[C@@H]3CN[C@H](C(=O)N(C)C)C3)[C@H](C)[C@H]12 [Example 241]
10 | – | – | – | – | 2 (≈ 3.83 µM) | 8 (≈ 15.3 µM) | 2 (≈ 3.83 µM) | 16 (≈ 30.6 µM) | C[C@@H](NC(=O)CNC(=N)N)[C@H]1C(=O)N2C(C(=O)O)=C(S[C@@H]3CN[C@H](C(=O)N4CC[C@@H](N)C4)C3)[C@H](C)[C@H]12 [Example 242]
11 | – | – | – | – | 32 (≈ 54.8 µM) | > 128 | 16 (≈ 27.4 µM) | 32 (≈ 54.8 µM) | C[C@@H](NC(=O)C(F)F)[C@H]1C(=O)N2C(C(=O)O)=C(S[C@@H]3CN[C@H](C(=O)N(C)Cc4cc(=O)c(O)cn4C)C3)[C@H](C)[C@H]12 [Example 243]
12 | – | – | – | – | 4 (≈ 9.56 µM) | 64 (≈ 153 µM) | 1 (≈ 2.39 µM) | 1 (≈ 2.39 µM) | C[C@@H](NC(=O)C(F)F)[C@H]1C(=O)N2C(C(=O)O)=C(S[C@@H]3CN[C@H](CN)C3)[C@H](C)[C@H]12 [Example 244]
13 | – | – | – | – | 4 (≈ 8.32 µM) | 4 (≈ 8.32 µM) | 2 (≈ 4.16 µM) | 8 (≈ 16.6 µM) | C[C@@H](NC(=O)CN)[C@H]1C(=O)N2C(C(=O)O)=C(S[C@@H]3CN[C@H](C(=O)N4CC[C@@H](N)C4)C3)[C@H](C)[C@H]12 [Example 245]
14 | – | – | – | – | 128 (≈ 200 µM) | > 128 | 8 (≈ 12.5 µM) | 32 (≈ 50.1 µM) | C[C@@H](NC(=O)C(F)F)[C@H]1C(=O)N2C(C(=O)O)=C(S[C@@H]3CN[C@H](C(=O)N4CC[C@H](NCc5cc(=O)c(O)cn5C)C4)C3)[C@H](C)[C@H]12 [Example 246]
15 | – | – | – | – | 32 (≈ 57.2 µM) | > 128 | 4 (≈ 7.15 µM) | 32 (≈ 57.2 µM) | C[C@@H](NC(=O)C(F)F)[C@H]1C(=O)N2C(C(=O)O)=C(S[C@@H]3CN[C@H](C(=O)N4C[C@H](NC(=N)N)[C@@H](O)C4)C3)[C@H](C)[C@H]12 [Example 247]

— US11180504B2 (ORCHID PHARMA LTD., priority 2016, dated 2021)
